Publication PMC9953224, “Pharmacokinetic Evaluation of New Drugs Using a Multi-Labelling Approach and PET Imaging: Application to a Drug Candidate with Potential Application in Neuromuscular Disorders” (Biomedicines, 2023)
Read-outs that look alike come from different tables or passages of the source.

Assays:
[1] = target: T1, FKBP12/RyR interaction (Homo sapiens, UniProt P62942); assay: In situ proximity ligation assay (PLA) in human myotubes under nitro-oxidative stress; assay type: cell-based; conditions: human myotubes challenged with peroxynitrite donor SIN1 (5 mM, 30 min)
T1 construct: endogenous in cells; host or cells: immortalized human myoblasts differentiated into myotubes
T1 sequence (P62942 2-108 limits assumed): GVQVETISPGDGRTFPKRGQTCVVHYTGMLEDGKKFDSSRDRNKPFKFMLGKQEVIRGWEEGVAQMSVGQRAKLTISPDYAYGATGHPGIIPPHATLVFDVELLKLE
T1 sequence (P21817 whole entry partner): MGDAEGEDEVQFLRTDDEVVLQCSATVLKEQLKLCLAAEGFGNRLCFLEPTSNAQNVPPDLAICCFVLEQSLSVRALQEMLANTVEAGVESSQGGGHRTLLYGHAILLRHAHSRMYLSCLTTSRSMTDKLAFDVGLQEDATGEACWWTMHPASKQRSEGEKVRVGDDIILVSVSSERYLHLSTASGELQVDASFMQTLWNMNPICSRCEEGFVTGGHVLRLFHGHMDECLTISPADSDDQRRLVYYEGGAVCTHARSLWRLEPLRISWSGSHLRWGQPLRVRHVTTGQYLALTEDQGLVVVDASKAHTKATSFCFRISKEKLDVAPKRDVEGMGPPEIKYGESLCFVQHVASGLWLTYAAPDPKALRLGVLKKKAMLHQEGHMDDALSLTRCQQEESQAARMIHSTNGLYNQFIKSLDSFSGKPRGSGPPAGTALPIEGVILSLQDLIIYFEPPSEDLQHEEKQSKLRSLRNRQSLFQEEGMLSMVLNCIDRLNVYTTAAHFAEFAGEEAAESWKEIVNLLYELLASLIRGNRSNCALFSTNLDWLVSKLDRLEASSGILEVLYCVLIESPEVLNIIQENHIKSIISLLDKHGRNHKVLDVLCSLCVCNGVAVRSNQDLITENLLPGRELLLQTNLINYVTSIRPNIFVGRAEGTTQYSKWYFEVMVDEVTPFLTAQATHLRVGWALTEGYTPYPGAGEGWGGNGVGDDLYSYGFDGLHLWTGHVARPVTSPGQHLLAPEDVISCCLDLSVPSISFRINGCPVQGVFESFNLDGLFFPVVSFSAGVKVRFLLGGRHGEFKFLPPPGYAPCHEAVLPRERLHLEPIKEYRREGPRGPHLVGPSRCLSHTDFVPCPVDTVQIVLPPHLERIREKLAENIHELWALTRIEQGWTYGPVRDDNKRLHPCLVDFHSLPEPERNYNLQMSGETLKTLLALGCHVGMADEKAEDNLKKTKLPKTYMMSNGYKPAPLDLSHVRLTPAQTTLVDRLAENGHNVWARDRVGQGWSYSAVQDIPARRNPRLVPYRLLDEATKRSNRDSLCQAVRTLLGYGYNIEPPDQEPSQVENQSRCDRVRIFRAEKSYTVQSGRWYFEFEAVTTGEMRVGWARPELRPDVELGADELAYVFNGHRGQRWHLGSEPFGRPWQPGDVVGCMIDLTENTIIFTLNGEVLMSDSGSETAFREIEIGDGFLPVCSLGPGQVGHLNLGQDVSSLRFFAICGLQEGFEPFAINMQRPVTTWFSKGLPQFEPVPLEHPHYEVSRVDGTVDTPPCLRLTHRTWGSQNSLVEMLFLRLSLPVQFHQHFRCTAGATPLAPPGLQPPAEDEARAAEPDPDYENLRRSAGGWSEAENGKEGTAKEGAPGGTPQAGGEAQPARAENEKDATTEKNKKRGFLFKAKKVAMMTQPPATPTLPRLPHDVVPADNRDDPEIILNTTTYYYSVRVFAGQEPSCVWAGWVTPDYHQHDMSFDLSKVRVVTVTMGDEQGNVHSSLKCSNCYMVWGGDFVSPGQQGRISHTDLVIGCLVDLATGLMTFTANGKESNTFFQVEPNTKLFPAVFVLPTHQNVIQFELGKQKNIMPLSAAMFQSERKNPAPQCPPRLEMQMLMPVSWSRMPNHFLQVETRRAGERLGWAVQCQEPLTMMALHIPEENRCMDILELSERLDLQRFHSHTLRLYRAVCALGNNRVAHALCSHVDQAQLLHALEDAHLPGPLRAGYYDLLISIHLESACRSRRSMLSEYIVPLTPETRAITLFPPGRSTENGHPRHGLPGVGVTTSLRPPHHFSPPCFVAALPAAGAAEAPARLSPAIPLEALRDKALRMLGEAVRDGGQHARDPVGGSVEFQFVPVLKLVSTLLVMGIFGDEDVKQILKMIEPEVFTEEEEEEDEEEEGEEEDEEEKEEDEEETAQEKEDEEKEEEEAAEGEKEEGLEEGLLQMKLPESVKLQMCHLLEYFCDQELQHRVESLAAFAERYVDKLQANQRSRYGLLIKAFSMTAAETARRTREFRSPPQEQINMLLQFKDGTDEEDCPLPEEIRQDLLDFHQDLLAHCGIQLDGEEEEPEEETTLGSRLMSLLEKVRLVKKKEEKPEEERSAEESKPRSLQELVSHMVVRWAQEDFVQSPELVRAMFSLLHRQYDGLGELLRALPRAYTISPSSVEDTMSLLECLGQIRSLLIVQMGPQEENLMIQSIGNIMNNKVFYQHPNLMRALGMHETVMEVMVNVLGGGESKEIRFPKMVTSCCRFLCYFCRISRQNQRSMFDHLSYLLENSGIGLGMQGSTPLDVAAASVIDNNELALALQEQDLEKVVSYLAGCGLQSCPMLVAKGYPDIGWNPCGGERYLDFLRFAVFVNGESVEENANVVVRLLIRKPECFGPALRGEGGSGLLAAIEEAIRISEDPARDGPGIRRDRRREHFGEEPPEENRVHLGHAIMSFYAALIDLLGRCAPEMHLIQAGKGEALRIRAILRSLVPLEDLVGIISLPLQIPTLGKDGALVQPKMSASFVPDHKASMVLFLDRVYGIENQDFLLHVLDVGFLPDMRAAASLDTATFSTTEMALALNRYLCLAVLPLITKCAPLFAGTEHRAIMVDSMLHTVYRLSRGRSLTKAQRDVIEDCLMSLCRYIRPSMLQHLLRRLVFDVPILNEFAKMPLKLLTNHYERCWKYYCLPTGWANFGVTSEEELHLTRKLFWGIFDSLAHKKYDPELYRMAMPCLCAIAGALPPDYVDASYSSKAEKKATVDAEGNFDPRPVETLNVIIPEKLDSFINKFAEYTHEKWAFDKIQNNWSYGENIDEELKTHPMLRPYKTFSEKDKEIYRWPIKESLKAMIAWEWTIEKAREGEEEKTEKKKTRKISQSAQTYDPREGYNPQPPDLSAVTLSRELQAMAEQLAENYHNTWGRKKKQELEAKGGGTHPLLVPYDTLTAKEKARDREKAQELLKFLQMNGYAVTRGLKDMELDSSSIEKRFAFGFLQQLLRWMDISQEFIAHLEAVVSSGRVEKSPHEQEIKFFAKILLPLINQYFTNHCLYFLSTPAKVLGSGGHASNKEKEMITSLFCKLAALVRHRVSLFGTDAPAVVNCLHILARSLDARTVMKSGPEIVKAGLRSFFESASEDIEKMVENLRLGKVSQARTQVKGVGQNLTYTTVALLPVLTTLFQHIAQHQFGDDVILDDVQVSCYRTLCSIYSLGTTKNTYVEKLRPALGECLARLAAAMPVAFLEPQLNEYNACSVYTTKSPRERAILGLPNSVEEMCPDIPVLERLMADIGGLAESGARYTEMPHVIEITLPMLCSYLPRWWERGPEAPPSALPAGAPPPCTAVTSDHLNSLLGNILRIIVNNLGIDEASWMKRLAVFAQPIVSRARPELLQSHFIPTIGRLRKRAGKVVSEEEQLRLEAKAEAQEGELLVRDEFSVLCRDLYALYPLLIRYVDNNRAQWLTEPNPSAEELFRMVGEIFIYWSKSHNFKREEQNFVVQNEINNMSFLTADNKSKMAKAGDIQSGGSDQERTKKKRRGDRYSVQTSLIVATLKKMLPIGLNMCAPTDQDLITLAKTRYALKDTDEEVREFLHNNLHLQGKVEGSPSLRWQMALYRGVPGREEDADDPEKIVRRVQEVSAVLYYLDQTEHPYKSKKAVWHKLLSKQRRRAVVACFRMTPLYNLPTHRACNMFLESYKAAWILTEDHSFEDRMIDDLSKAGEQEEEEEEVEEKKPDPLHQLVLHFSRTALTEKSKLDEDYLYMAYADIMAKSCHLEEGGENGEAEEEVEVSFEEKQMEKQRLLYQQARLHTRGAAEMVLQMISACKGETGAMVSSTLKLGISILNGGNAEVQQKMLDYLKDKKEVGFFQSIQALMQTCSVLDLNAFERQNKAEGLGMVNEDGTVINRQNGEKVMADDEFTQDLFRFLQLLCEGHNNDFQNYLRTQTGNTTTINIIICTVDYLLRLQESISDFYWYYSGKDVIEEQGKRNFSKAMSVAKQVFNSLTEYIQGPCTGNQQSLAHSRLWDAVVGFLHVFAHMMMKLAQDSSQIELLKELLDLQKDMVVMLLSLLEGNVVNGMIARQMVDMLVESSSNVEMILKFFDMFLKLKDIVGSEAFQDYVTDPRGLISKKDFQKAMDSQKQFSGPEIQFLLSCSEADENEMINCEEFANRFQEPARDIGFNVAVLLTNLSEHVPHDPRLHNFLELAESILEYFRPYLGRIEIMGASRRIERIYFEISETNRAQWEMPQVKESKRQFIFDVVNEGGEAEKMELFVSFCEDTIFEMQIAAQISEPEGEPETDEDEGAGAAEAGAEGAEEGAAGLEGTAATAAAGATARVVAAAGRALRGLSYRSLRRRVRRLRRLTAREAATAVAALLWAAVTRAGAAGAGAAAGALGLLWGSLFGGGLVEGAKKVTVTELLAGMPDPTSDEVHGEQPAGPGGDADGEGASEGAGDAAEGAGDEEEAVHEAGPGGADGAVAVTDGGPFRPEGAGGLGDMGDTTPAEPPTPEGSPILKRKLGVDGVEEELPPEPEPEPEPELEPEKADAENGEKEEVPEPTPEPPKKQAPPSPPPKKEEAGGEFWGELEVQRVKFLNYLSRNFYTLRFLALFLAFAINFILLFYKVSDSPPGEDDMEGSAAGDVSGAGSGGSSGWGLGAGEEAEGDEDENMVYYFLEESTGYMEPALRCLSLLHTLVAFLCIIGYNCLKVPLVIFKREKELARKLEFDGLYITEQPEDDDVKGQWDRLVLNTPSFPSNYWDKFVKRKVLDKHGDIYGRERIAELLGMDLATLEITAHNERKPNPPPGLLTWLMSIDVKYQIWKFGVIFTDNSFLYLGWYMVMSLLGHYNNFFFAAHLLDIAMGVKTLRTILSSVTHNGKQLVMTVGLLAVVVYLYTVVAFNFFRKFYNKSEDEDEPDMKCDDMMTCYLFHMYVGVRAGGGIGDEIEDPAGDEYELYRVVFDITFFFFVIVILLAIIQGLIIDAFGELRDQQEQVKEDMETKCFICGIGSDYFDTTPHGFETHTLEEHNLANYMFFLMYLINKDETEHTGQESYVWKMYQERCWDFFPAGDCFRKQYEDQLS
Procedure: In situ PLA was used for evaluation of FKBP12/RyR stability in human myotubes under nitro-oxidative stress, as previously described. Briefly, immortalized human myoblasts (Myology Institute, Paris, France) were differentiated into myotubes and nitro-oxidative stress was induced by addition of the peroxynitrite donor 3-morpholinosydnonimine (SIN1, 5 mM, SCBT, Heidelberg, Germany) for 30 min. Myotubes were fixed with 4% paraformaldehyde (Aname, Madrid, Spain) and incubated overnight with the following primary antibodies: anti-RyR mouse mAb (1:200, Thermo Scientific, Waltham, MA, USA), and anti-FKBP12 rabbit pAb (1:100, Novus Biologicals, Centennial, CO, USA). The Duolink in situ PLA Orange assay kit was used with corresponding conjugated secondary antibodies (Sigma). Samples were counterstained with FITC-conjugated Myosin Heavy Chain-CFS mAb (MyHC, 1:50, R&D, Minneapolis, MN, USA) and mounted with ProLong Gold antifade reagent (Life Technologies, Eugene, OR, USA). Image quantification was performed with ImageJ (NIH). For each image, the total number of spots was normalized to the MyHC area. At least 3 images per condition were analysed with an average of 8–9 myotubes per image. Statistical significance was determined using One-Way ANOVA followed by Dunett’s multiple comparisons test. p-values < 0.05 were considered statistically significant.

[2] = Pharmacokinetics from metabolite-corrected arterial plasma TACs after intravenous administration; assay type: in vivo, Sprague Dawley Rats; conditions: for MRT / Vd / half-life: Sprague Dawley, rat, arterial plasma; for MRT: read-out: MRT mean residence time (converted); for Vd / half-life: iv; for half-life: read-out: t1/2 terminal half-life
Procedure: (§1) Anaesthesia was induced with 5% isoflurane (IsoFlo®, Abbott Laboratories, Abbott Park, IL, USA) and maintained by 2% of isoflurane in 100% O2. During the experiment, rats were kept normothermic using a heating blanket (Homeothermic Blanket Control Unit; Bruker). The rat was positioned in supine position on an operating table and the two distal hind limbs were fixed forming an approximately 30° angle with the horizontal plane. The surgical region was scrubbed using Betadine, starting in the centre, and making a circular sweep outward. A skin incision was made in the femoral region. Soft tissue was dissected to expose the femoral neurovascular bundle, consisting of femoral vein, artery, and nerve. Fine tip forceps were placed between the artery, vein and nerve and were slowly opened to separate the vessels, exposing an approximately 1 cm length section of artery/vein. The vena profunda femoris was sutured to avoid retrograde bleeding via this vessel, and the sapheno-femoral junction was cauterized. A few millimetres from venatomy, a vascular clip was inserted in the direction of the catheter (to control the flow) and a suture was applied in the opposite direction (to avoid retrograde bleeding). The same operation was carried out both on the femoral vein and femoral artery. An appropriate syringe filled with 50 U/mL Heparin/physiologic saline solution was fixed at the terminus of the catheters and these were filled with heparinized saline solution. On the upper half of the vessel circumference, at a 45° angle, an incision was made and the catheter (fine bore polythene tubing: ID 0.58 mm, OD 0.98 mm) was inserted through the venotomy and advanced to the vascular clip. The vascular clip was then removed, and the catheter advanced distally towards the level of the inguinal ligament. The catheter was finally secured to the femoral vein/artery proximally and distally with 2 single knots using 4–0 braided silk suture. The catheters were connected to an in-house developed system composed by a peristaltic pump and gamma-radiation coincidence detector (Bioscan, B-FC-4100). The femoral artery catheter, the gamma detector, the peristaltic pump, and the femoral vein catheter were thus connected in series, to enable the extracorporeal circulation of blood (flow 150 μL/s from femoral artery to femoral vein) and continuous measurement of radioactivity in the blood (Figure 1).
(§2) The labelled compounds were administrated two different ways: (i) intravenous bolus infusion (ca. 37 MBq in 300 μL of saline solution was injected through the femoral vein catheter) and (ii) oral bolus administration. For oral administration, animals were fasted for 5 h. The radioactive dose (ca. 74 MBq in 300 μL of saline solution) was administered using flexible 20-gauge disposable flexible PTFE feeding needles (Fine Science Tools, F.S.T.) and a small animal Laryngoscope (Penn-Century, Model LS-2) for the correct visualization of the oesophagus. The study was conducted under no carrier added (NCA, dose adjusted to 1 μg/Kg) and carrier added (CA, dose adjusted to 5 mg/Kg) conditions. In all cases, data were imported in real time to an excel sheet using PLX-DAX add-on for Microsoft Excel (measured in volts per second).
(§3) Arterial blood samples (1 per animal) were withdrawn (see Figure 1) from the femoral artery catheter and introduced into a capillary (Microhaematocrit capillaries 75 × 1.55, Nahita). Samples were centrifuged at 11,000× g […] for 10 min and the haematocrit was determined. A second blood sample was withdrawn and the amount of radioactivity of a fixed volume (10 µL) was measured in an automatic gamma counter (2470 Wizard, PerkinElmer) to determine Cb (concentration of radioactivity in blood) and convert data imported with PLX-DAX (Volts per seconds) into Bq/s using a previously determined calibration curve. Values were then expressed as percentage of injected dose per gram of blood (% ID/g). […]

[3] = Pharmacokinetics from metabolite-corrected arterial plasma TACs after oral administration; assay type: in vivo, Sprague Dawley Rats; conditions: for MRT / half-life: Sprague Dawley, rat, arterial plasma; for MRT: read-out: MRT mean residence time (converted); for half-life: read-out: t1/2 terminal half-life
Procedure: as §1, §2, §3

[4] = 1 ug/kg, intravenous, 1 µg/Kg, n = 5
[5] = both groups (1 µg/Kg and 5 mg/Kg) pooled together
[6] = intravenous, both groups (1 µg/Kg and 5 mg/Kg) pooled together

With `COc1ccc(SCc2cn(CCN(C)C)nn2)cc1` [AHK2, 1-[2-(N,N-dimethylamino)ethyl]-4-[(4-methoxyphenyl)thiomethyl]-1H-1,2,3-triazole] the “increase of FKBP12/RyR interaction (stabilization)” value [1] was 89%, the MRT [2, 4] was 8.48 min and the Vd ([2]; 1 ug/kg, intravenous, 1 µg/Kg, n = 5, read-out: Vss volume of distribution at the steady state) was 1.03 ± 0.695 L. It also gave a Vd ([2]; 1 ug/kg, intravenous, 1 µg/Kg, n = 5, read-out: Vz volume of distribution based on the terminal slope) of 2 ± 0.43 L, a half-life [2, 4] of 11.7 ± 3.22 min and a Vd ([2]; 5 mg/kg, intravenous, 5 mg/Kg, n = 5, read-out: Vss volume of distribution at the steady state) of 1.13 ± 0.443 L. It also gave a Vd ([2]; 5 mg/kg, intravenous, 5 mg/Kg, n = 5, read-out: Vz volume of distribution based on the terminal slope) of 2.34 ± 0.609 L, a half-life ([2]; 5 mg/kg, intravenous, 5 mg/Kg, n = 5) of 13.6 ± 3.42 min and a Vd ([2]; both groups (1 µg/Kg and 5 mg/Kg) pooled together, read-out: Vss volume of distribution at the steady state) of 1.08 ± 0.809 L. For the same molecule, the Vd ([2]; both groups (1 µg/Kg and 5 mg/Kg) pooled together, read-out: Vz volume of distribution based on the terminal slope) was 2.17 ± 1.13 L, the half-life [2, 5] was 12.6 ± 3.3 min and the MRT ([2]; intravenous, 5 mg/Kg, n = 5) was 8.59 min. The MRT [2, 6] was 8.53 min, the “AUC area under the curve” value ([2]; intravenous, 1 µg/Kg, n = 5) was 53.99 ± 11.04 %IDxs/mL and the Cl plasma clearance ([2]; intravenous, 1 µg/Kg, n = 5) was 1.91 ± 0.41 mL/s. The “AUC area under the curve” value ([2]; intravenous, 5 mg/Kg, n = 5) was 59.39 ± 19.76 %IDxs/mL, the Cl plasma clearance ([2]; intravenous, 5 mg/Kg, n = 5) was 1.87 ± 0.73 mL/s and the “AUC area under the curve” value [2, 6] was 56.69 ± 15.36 %IDxs/mL. The Cl plasma clearance [2, 6] was 1.89 ± 0.55 mL/s, the t1/2 terminal half-life [2, 6] was 12.63 ± 3.29 min and the “AUC area under the curve” value ([3]; 1 µg/Kg) was 6.68 ± 4.35 %IDxs/mL. For the same molecule, the Cl plasma clearance ([3]; 1 µg/Kg) was 4.23 ± 3.58 mL/s, the “Vz volume of distribution based on the terminal slope” value (from here on “Vz volume … on the terminal slope”) ([3]; 1 µg/Kg) was 2728.14 ± 1252.35 mL and the “AUC area under the curve” value ([3]; 5 mg/Kg) was 13.35 ± 5.08 %IDxs/mL. The Cl plasma clearance ([3]; 5 mg/Kg) was 1.57 ± 0.69 mL/s, the “Vz volume … on the terminal slope” value ([3]; 5 mg/Kg) was 1624.28 ± 1299.35 mL and the MRT ([3]; 1 ug/kg) was 8.51 min. It also gave a half-life ([3]; 1 ug/kg) of 9.16 ± 3.78 min, an MRT ([3]; 5 mg/Kg) of 9.36 min and a half-life ([3]; 5 mg/Kg) of 13 ± 11.1 min. For the same molecule, the MRT [3, 5] was 9 min, the half-life [3, 5] was 11.3 ± 8.44 min and the “AUC area under the curve” value [3, 5] was 10.49 ± 5.65 %IDxs/mL. The Cl plasma clearance [3, 5] was 2.71 ± 2.55 mL/s and the “Vz volume … on the terminal slope” value [3, 5] was 2097.36 ± 1309.61 mL.
